BindingDB's records for doi:10.7270/Q2MS3R62 (Burnham Center For Chemical Genomics, 2007)

Biological target: Heat shock cognate 71 kDa protein (Homo sapiens, UniProt P11142)
Sequence (P11142 whole entry): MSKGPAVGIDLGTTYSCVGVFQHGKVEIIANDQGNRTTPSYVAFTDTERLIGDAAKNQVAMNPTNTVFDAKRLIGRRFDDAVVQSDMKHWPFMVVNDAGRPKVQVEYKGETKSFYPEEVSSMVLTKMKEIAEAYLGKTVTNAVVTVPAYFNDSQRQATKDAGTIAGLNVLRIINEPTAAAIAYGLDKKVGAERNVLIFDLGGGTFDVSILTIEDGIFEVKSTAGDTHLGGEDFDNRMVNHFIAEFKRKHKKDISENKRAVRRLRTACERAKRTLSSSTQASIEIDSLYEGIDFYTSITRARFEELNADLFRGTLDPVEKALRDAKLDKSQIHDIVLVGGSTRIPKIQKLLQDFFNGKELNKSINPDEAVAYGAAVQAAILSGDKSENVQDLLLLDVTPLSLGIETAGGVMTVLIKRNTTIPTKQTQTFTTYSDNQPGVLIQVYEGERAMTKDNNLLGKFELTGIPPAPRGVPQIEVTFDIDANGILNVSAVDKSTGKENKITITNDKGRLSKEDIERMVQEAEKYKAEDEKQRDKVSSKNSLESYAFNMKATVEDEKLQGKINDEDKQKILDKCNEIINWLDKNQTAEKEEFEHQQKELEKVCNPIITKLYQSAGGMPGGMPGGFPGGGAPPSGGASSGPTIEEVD

Row | IC50 [µM] | Compound
1 | 999 | CC(=O)N1CCC2(CC1)c1c(n[nH]c1C)OC(=N)C2C#N (configuration not stated) [6-azanyl-1'-ethanoyl-3-methyl-spiro[2H-pyrano[2,3-c]pyrazole-4,4'-piperidine]-5-carbonitrile]
2 | 999 | C=c1[nH]n(-c2cccc(C(=O)O)c2)c(=O)c1=CC=Cc1ccco1 [SMR000113614]
